Assay results: article PMC6657668, “Porcine Beta-Defensin 2 Provides Protection Against Bacterial Infection by a Direct Bactericidal Activity and Alleviates Inflammation via Interference With the TLR4/NF-κB Pathway” (Frontiers in Immunology, 2019)
Where two headings read alike, the source gives them in different places. Where no end group is shown, it is not given here.

What was measured:
[1] = system: RAW 264.7 cells; assay: Cytokine levels of RAW 264.7 cells after treatment with LPS (ELISA), with or without pathway inhibitor; assay type: cell-based, mouse; details: 1 h pre-treatment, LPS 1 μg/ml, 16 h, n = 6
Description: RAW 264.7 cells and RAW 264.7 cells stably expressing PBD-2 were pre-treated with S. Typhimurium at MOI = 10:1 for 1 h or with LPS (1 μg/ml) for 16 h, washed with PBS twice and incubated with RPMI 1640 that contained PBS or PBD-2 (10 μg/mL) for 16 h. RAW 264.7 cells stably expressing PBD-2 were maintained in RPMI 1640 that contained PBS for 16 h (n = 6 for each group). The expression levels of proinflammatory cytokines in the cell culture supernatant were determined through ELISA in accordance with the manufacturer's instruction.
In the inhibition assay, RAW 264.7 cells were pre-treated with 4 μg/ml NF-κB inhibitor (Celastrol, # ant-cls, InvivoGen®, San Diego, CA, USA) or 1 μg/ml TLR4 inhibitor (CLI-095, # tlrl-cli95, InvivoGen®, San Diego, CA, USA) for 1 h. Subsequently, RAW 264.7 cells were treated with LPS (1 μg/ml) alone or together with PBD-2 (10 μg/mL) for 16 h (n = 6 each group). RAW 264.7 cells treated with PBS were used as control. The levels of the cytokines in the supernatant of the cells were detected through ELISA.

[2] = system: NF-κB; assay: NF-κB promoter activity, luciferase reporter assay in RAW 264.7 cells; assay type: cell-based, mouse; details: CLI-095 1 μg/ml, 1 h pre-treatment; LPS 1 μg/ml, 24 h; n = 6
Description: A luciferase reporter assay was used to detect the promoter activity of NF-κB. RAW 264.7 cells were seeded in a 24-well plate for 24 h and then cotransfected with 800 ng/well of the NF-κB reporter plasmid (pGL3-Basic) and 20 ng/well of pLR-TK. WT […] luciferase (Rluc) served as the reporter gene control vector. […] In the inhibition assay, the cells were pre-treated with 1 μg/ml TLR4 inhibitor for 1 h and treated with LPS (1 μg/ml) alone or together with PBD-2 (10 μg/mL) for 24 h (n = 6 each group). Luciferase units were detected to show the promoter activity of NF-κB ([28]).

[3] = system: release of inflammatory cytokines; details: cited from earlier work
Source text: Bacterial drug resistance has become a global concern. Endeavors in search for antibiotic substitutes are desperately needed. Antimicrobial peptides (AMPs) are natural anti-infective agents identified in various species and implicated in innate immunity ([1]). […] AMPs not only have a direct bactericidal activity but also regulate immune and inflammatory responses ([3]). As bactericides, cationic AMPs exert bactericidal act ... || The colitis caused by S. Typhimurium mainly results from intestinal mucosal inflammation after the breakage of intestinal epithelial barrier by pathogens ([26]).

[4] = cited from earlier work
Source text: (§1) The mechanism of how AMPs modulate immune signaling pathways has yet to be fully understood. […] Instead, it interacted with TLR4. […] Therefore, th ...

[5] = system: TLR3; details: TLR3 ligand poly (I:C); ref [6]; cited from earlier work
Source text: as §1

[6] = system: Bordetella pertussis; details: pigs; ref [35]; cited from earlier work
Source text: (§2) The antibiotic resistance of pathogenic bacteria has become a global threat ([30]). Defensins are natural peptides secreted by many species and implicated in resisting bacterial infection ([31]). PBD-2 is one of the defensins expressed in pigs. […] The invasion of S. Typhimurium can increase the expression of PBD-2 in porcine epithelial cells ([32]). […] PBD-2 also improves the growth perf ...

[7] = system: intestinal epithelial cells; details: cells transfected with genes encoding hBD-2 and hBD-3, infected with S. Typhimurium; vs untransfected; ref [44]; cited from earlier work
Source text: The colitis caused by S. Typhimurium mainly results from intestinal mucosal inflammation after the breakage of intestinal epithelial barrier by pathogens ([26]).

[8] = system: TLR1; details: ref [50]; cited from earlier work
Source text: as §1

[9] = system: TLR2; details: ref [50]; cited from earlier work
Source text: as §1

[10] = system: signaling pathways downstream of TLR4; details: MyD88-dependent and MyD88-independent pathways; ref [50]; cited from earlier work
Source text: as §1

[11] = cited from earlier work; remark: listed apart in the source
Source text: as §2

[12] = molecular target: T1, TLR4, purified recombinant protein (Cloud-clone # RPA753Mu01) (UniProt Q9QUK6 26-638); assay: ITC; Nano-ITC, 25°C; PBD-2 in the syringe (0.215 mM), TLR4 in the calorimeter cell (0.016 to 0.050 mM); control: PBD-2 into PBS; details: both partners purified
T1 construct: Toll-like receptor 4 (TLR4), bought recombinant protein; the vendor's data sheet is needed; also called purified TLR4; source: bought: Cloud-clone (# RPA753Mu01)
T1 sequence (looked up): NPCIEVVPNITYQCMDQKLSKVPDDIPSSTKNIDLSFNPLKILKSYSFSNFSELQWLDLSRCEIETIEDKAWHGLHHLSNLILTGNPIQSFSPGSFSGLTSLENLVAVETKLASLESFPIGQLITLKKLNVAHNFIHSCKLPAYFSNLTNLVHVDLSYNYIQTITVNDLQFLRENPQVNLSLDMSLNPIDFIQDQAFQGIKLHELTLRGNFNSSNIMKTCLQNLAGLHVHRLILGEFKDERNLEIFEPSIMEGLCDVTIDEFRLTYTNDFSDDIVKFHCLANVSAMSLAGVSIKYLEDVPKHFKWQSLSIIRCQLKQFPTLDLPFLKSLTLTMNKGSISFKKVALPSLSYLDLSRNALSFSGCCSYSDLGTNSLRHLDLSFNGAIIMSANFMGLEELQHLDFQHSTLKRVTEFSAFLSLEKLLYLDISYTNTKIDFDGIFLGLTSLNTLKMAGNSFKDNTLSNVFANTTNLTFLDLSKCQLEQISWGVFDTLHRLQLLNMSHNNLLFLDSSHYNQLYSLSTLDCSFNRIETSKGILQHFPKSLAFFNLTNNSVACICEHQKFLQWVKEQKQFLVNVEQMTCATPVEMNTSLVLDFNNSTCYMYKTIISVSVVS

Molecule: CC1=C(O)C(=O)C=C2C1=CC=C1[C@@]2(C)CC[C@@]2(C)[C@@H]3C[C@](C)(C(=O)O)CC[C@]3(C)CC[C@]12C [NF-κB inhibitor, Celastrol, reference compound]
- secretion of IL-1β triggered by LPS ([1]; Celastrol 4 μg/ml): significantly reduced the secretion of TNF-α, IL-6, and IL-1β triggered by LPS
- secretion of IL-6 triggered by LPS ([1]; Celastrol 4 μg/ml): significantly reduced the secretion of TNF-α, IL-6, and IL-1β triggered by LPS
- secretion of TNF-α triggered by LPS ([1]; Celastrol 4 μg/ml): significantly reduced the secretion of TNF-α, IL-6, and IL-1β triggered by LPS

Molecule: CCOC(=O)C1=CCCC[C@H]1S(=O)(=O)Nc1ccc(F)cc1Cl [TLR4 inhibitor, reference compound]
- secretion of IL-1β triggered by LPS ([1]; CLI-095 1 μg/ml): significantly reduced the secretion of TNF-α, IL-6, and IL-1β triggered by LPS
- secretion of IL-6 triggered by LPS ([1]; CLI-095 1 μg/ml): significantly reduced the secretion of TNF-α, IL-6, and IL-1β triggered by LPS
- secretion of TNF-α triggered by LPS ([1]; CLI-095 1 μg/ml): significantly reduced the secretion of TNF-α, IL-6, and IL-1β triggered by LPS
- LPS-induced NF-κB promoter activity, TLR4 inhibitor [2]: inhibited the LPS-induced promoter activity of NF-κB in RAW 264.7

Molecule: LL-37: human AMP (LLGDFFRKSKEKIGKEFKRIVQRIKDFLRNLVPRTES; Antibacterial peptide LL-37; UniProt P49913 134-170, looked up)
- release of inflammatory cytokines ([3]; ref [5]): suppress the release of inflammatory cytokines
- suppression of inflammation ([3]; ref [6]): can suppress inflammation by inhibiting specific inflammatory signaling pathways
- anti-endotoxin ability ([4]; ref [48]): exert anti-endotoxin abilities by either disrupting LPS or inhibiting the LPS-induced production of TNF-α
- TLR3-dependent immune responses [5]: TLR3-dependent immune responses are blocked by LL-37

Molecule: PR39
- anti-endotoxin ability ([4]; ref [49]): exert anti-endotoxin abilities by either disrupting LPS or inhibiting the LPS-induced production of TNF-α

Molecule: Porcine beta-defensin 1: another defensin from pigs and homolog of human beta-defensin 2 (NIGNSVSCLRNKGVCMPGKCAPKMKQIGTCGMPQVKCCKRK; ends and bridges not checked; cysteine pairing not given here; UniProt O62697 24-64, looked up)
- protection against Bordetella pertussis infection [6]: protects against Bordetella pertussis infection in pigs

Molecule: hBD3: human β-defensin 3 (GIINTLQKYYCRVRGGRCAVLSCLPKEEQIGKCSTRGRKCCRRKK; ends and bridges not checked; cysteine pairing not given here; UniProt P81534 23-67, looked up)
- suppression of inflammation ([3]; ref [7]): can suppress inflammation by inhibiting specific inflammatory signaling pathways
- TNF-α and IL-6 secretion ([3]; ref [43]): suppressing TNF-α and IL-6 secretion
- expression level of proinflammatory cytokines [7]: decreased expression level of proinflammatory cytokines
- binding to LPS ([4]; ref [50]): does not bind to LPS
- interaction with TLR1 [8]: can interact with TLR1 and TLR2, leading to the activation of the MyD88-dependent pathway
- interaction with TLR2 [9]: can interact with TLR1 and TLR2, leading to the activation of the MyD88-dependent pathway
- LPS-induced inflammation [10]: could inhibit the LPS-induced inflammation by repressing the signaling pathways downstream of TLR4

Molecule: hBD-1: β-defensin of human (DHYNCVSSGGQCLYSACPIFTKIQGTCYRGKAKCCK; ends and bridges not checked; cysteine pairing not given here; UniProt P60022 33-68, looked up)
- antibacterial effects in vivo ([11]; ref [36]): have antibacterial effects in vivo

Molecule: hBD-2: β-defensin of human (GIGDPVTCLKSGAICHPVFCPRRYKQIGTCGLPGTKCCKKP; ends and bridges not checked; cysteine pairing not given here; UniProt O15263 24-64, looked up)
- antibacterial effects in vivo ([11]; ref [36]): have antibacterial effects in vivo
- expression level of proinflammatory cytokines [7]: decreased expression level of proinflammatory cytokines

Molecule: rMBD3: β-defensin 3 (rMBD3) of mice (KKINNPVSCLRKGGRCWNRCIGNTRQIGSCGVPFLKCCKRK; ends and bridges not checked; cysteine pairing not given here; UniProt Q9WTL0 23-63, looked up)
- antibacterial effects in vivo ([11]; mice, ref [37]): have antibacterial effects in vivo

B1: Porcine beta-defensin 2 (PBD-2), synthetic mature peptide (peptide)
peptide: DHYICAKKGGTCNFSPCPLFNRIEGTCYSGKAKCCIR
modifications: ends and bridges not checked; cysteine pairing not given here
notes: mature peptide of porcine beta-defensin 2 (PBD-2), pig; also called synthetic PBD-2; source: synthetic peptide (Neweast Biosciences, # 60001)
- Kd [12]: 3.75 µM
